Literature values as cited in patent US20210220347A1 (priority 2015, published 2021).

Conditions: in vivo

CN1CC[C@]23c4c5ccc(O)c4O[C@H]2[C@@H](O)C=C[C@H]3[C@H]1C5 [morphine]
Respiratory depression dose response: linear and dose proportional
